Measured values from patent publication US6130215A, “Piperazinylalkylthiopyrimidine derivatives, pharmaceutical compositions containing the same and a process for the preparation of the novel compounds” (Egis Gyoyszergyar RT, priority 1995, dated 2000).
pIC50, pKi: −log10 of the molar value.

Columns and labels:
5-HT2A receptor [1] = molecular target: T1, 5-HT2A receptor (Rattus norvegicus, UniProt P14842); experiment: 5-HT2A receptor binding ([3H]ketanserine, rat brain frontal cortex membrane preparation); settings: tritiated ketanserine, 37° C., read-out: Inhibition of receptor binding of the radioactive ligand, 5-HT2A (Ki)
T1 construct: rat brain frontal cortex membrane preparation; from tissue; host or cells: rat brain frontal cortex membrane preparation
Protocol: (§1) 5-HT2A and 5-HT2C receptor binding was measured according to the methods described by Leysen et al. /Mol. Pharmacol., 21, 301 (1981)/ and Pazos et al. /Eur. J. Pharmacol., 106, 539 (1985)/, respectively. 5-HT2A receptor binding was measured in rat brain frontal cortex membrane preparation using tritiated ketanserine /3-/2-(4-fluorobenzoyl)- -1-piperidinyl/ethyl-2,4-(1H,3H)-quinazoline-dione/(60-90 Ci/mmole) as ligand. 5-HT2C receptor binding was measured in pig brain choroid plexus membrane preparation using tritiated mesulergine /N'-/(8)-1,6-dimethyl-ergoline-8-yl/-N,N-dimethylsulfamide (70-85 Ci/mmole) as the ligand. Non-specific binding to 5-HT2A and 5-HT2C receptors were determined in the presence of 10 micro M cyproheptadine/4-(5H-dibenzo/a,d/cycloheptene-5-ylidene)-1-methylpiperidine/ and 1 micro M mianserine/1,2,3,4,10,14b-hexahydro-2-methyldibenzo-/c,f/pyrazino/1,2-a/azepine/, respectively. The final incubation volumes were 250 and 1000 microlitres. Samples were incubated for 15 and 30 minutes at 37° C. Incubation was stopped by adding 9 ml of ice-cold 50 mM tris(hydroxymethyl)-aminomethane hydrochloride (pH=7.7) to the reaction mixture. The samples were rapidly filtered through Whatman GF/B glass fiber filters using reduced pressure. Before use, the filters were soaked in a 0.05% poly-ethyleneimine solution for 2 to 3 hours. Radioactivity of the filters was determined by a scintillation spectrometer.

5-HT2C receptor = molecular target: T2, 5-HT2C receptor (Sus scrofa, UniProt K7GSR7); experiment: 5-HT2C receptor binding ([3H]mesulergine, pig brain choroid plexus membrane preparation); settings: tritiated mesulergine, 37° C., read-out: Inhibition of receptor binding of the radioactive ligand, 5-HT2C (Ki)
T2 construct: pig brain choroid plexus membrane preparation; from tissue; host or cells: pig brain choroid plexus membrane preparation
T2 sequence (K7GSR7 1-457): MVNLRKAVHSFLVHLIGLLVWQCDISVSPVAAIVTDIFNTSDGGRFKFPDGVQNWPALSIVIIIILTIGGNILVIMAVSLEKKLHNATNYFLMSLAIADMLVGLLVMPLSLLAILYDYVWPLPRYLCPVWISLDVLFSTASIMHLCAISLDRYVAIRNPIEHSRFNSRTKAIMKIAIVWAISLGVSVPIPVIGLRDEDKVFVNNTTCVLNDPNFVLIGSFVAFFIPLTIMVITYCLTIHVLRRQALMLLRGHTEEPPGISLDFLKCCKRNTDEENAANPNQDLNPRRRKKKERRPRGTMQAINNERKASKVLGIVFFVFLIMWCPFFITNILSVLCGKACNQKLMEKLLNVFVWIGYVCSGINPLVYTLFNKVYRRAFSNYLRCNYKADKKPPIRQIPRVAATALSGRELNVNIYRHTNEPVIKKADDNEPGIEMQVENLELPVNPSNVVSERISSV
Protocol: as §1

5-HT2A receptor [2] = molecular target: T3, 5-HT2A receptor (Oryctolagus cuniculus, UniProt G1SYA7); experiment: 5-HT2A receptor antagonistic effect: inhibition of 5-HT-evoked contractions on isolated rabbit aortic strips; assay type: cell-based, rabbit (New-Zealand, male, white); settings: 5-HT 10^-6 M; phenoxybenzamine 10^-8 M; tranylcypramine 10^-7 M; 10 minutes incubation
T3 construct: The thoracic aorta segment after the aortic arch was removed; from tissue; host or cells: rabbit thoracic aorta, helical strips
Protocol: New-Zealand, male, white rabbits weighing 2.0 to 2.5 kg were killed by a blow on the head. The thoracic aorta segment after the aortic arch was removed and placed into a Krebs' solution (NaCl 118 mM, KCl 4.6 mM, NaHCO3 25 mM, glucose 10.5 mM, […] 1 mM, KH2PO4 1 mM, CaCl2 2.6 mM). The aorta was carefully cleaned from fat and connective tissue, and was cut into 3 mm wide and 30 mm long helical strips. Four strips were obtained from each rabbit. The strips were equilibrated at 37° C. for 60 minutes in an organ chamber filled with Krebs' solution. The strips were also oxygenated by bubbling carbogen gas (5% of carbon dioxide and 95% of oxygen) through the solution. The strips were stretched by 1 g tension.
The contractions were measured by a Hugo Sachs K-30 type strain gauge, and were registered on a Multicorder type polygraph. During the last 40 minutes of the equilibration, the MAO enzym inhibitor tranylcypramine (10^-7 M) /chemical name: (±)-trans-2-phenylcyclopropylamine/ was also added to the bath.
Any alpha-adrenergic effects of the test compounds were eliminated by 10^-8 M of phenoxybenzamine /N-(2-chloroethyl)-N-(1-methyl-2-phenoxyethyl)benzylamine/ /Clancy et al., J. Pharm. Exp. Ther., 233, 761 (1985). Testing of the serotonergic antagonistic effect was started at the 90th minute of incubation. The stability and reproducibility of the contractile response of the aortic strips to serotonin was tested by two consecutive application and wash-out procedures of 10^-6 M concentration of 5-HT, 40 minutes apart. […] 30 minutes after the second testing, a preset concentration of the test compound was added to the bath, and, after a 10 minutes incubation time, the response to 10^-6 M of 5-HT was determined in the presence of the compound to be tested.
Two different concentrations of a given compound were tested on each aortic strip by the above method. Reproducibility of the control 5-HT-evoked response was checked between testing the two concentrations of the compound.
IC50 was calculated by nonlinear curve fitting of the inhibitory effect of increasing concentrations of the test compound.

T3 sequence (G1SYA7 1-469): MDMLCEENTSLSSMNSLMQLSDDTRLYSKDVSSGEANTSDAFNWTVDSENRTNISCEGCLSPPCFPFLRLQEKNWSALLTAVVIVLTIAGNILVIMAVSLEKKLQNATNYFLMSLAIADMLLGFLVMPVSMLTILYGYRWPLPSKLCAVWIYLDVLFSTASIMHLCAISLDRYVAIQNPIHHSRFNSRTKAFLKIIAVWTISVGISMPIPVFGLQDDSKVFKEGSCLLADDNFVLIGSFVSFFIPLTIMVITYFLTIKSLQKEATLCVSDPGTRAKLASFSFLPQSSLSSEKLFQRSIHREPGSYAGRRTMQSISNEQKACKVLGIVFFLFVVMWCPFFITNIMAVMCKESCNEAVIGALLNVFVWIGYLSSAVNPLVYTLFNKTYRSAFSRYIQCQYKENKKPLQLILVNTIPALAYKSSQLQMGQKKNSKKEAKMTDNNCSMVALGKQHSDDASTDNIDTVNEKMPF
T1 sequence (P14842 whole entry): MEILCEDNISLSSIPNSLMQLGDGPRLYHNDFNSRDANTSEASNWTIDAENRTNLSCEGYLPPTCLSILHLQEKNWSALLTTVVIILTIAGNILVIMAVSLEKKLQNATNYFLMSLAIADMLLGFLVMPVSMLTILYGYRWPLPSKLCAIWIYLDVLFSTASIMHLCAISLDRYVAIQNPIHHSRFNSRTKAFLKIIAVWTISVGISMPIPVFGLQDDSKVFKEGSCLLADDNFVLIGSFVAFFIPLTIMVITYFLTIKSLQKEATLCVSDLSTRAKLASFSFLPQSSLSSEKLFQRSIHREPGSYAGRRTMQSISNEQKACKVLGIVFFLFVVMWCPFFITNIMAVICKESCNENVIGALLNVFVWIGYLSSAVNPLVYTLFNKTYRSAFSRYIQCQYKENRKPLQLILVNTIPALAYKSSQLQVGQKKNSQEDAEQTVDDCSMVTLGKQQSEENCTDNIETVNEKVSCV

**Q.** `Nc1cc(N)nc(SCCN2CCN(Cc3ccc(F)cc3)CC2)n1` [Example 3, 2-[2-/4-(4-Fluorobenzyl)-1-piperazinyl/-ethylthio]-7-4,6-diaminopyrimidine] was tested. Which pKi (5-HT2A receptor [1]) did it give?
**A.** 7.24

**Q.** And the pKi (5-HT2C receptor)?
**A.** < 7.00

**Q.** And the pIC50 (5-HT2A receptor [2])?
**A.** 6.02

**Q.** What does the source list for `Nc1cc(N)nc(SCCN2CCN(Cc3ccccc3Cl)CC2)n1` [Example 5, 2-[2-/4-(2-Chlorobenzyl)-1-piperazinyl/-ethylthio]-4,6-diaminopyrimidine]?
**A.** pKi (5-HT2A receptor [1]): 7.80; pKi (5-HT2C receptor): 7.17; pIC50 (5-HT2A receptor [2]): 6.60

**Q.** `COc1cccc(CN2CCN(CCSc3nc(N)c(Cc4ccccc4)c(N)n3)CC2)c1` [Example 12, 2-[2-/4-(3-Methdxybenzyl)-1-piperazinyl/-ethylthio]-4,6-diamino-5-benzylpyrimidine] was tested. Which pKi (5-HT2A receptor [1]) did it give?
**A.** < 7.00

**Q.** And the pKi (5-HT2C receptor)?
**A.** 7.33

**Q.** How did the pKi (5-HT2A receptor [1]) turn out when `Nc1nc(SCCN2CCN(Cc3ccccc3Cl)CC2)nc(N)c1Cc1ccccc1` [Example 13, 2-[2-/4-(2-Chlorobenzyl)-1-piperazinyl/-ethylthio]-4,6-diamino-5-benzylpyrimidine] was run?
**A.** 7.70

**Q.** What about the pKi (5-HT2C receptor) of the same compound?
**A.** 7.92

**Q.** What about the pIC50 (5-HT2A receptor [2]) of the same compound?
**A.** 6.92

**Q.** How did the pKi (5-HT2A receptor [1]) turn out when `Nc1nc(SCCN2CCN(Cc3ccc([N+](=O)[O-])cc3)CC2)nc(N)c1Cc1ccccc1` [Example 14, 2-[2-/4-(4-Nitrobenzyl)-1-piperazinyl/-ethylthio]-4,6-diamino-5-benzylpyrimidine] was run?
**A.** 7.11

**Q.** What about the pKi (5-HT2C receptor) of the same compound?
**A.** < 7.00

**Q.** What about the pIC50 (5-HT2A receptor [2]) of the same compound?
**A.** 5.22

**Q.** With `Nc1nc(SCCN2CCN(Cc3ccc([N+](=O)[O-])cc3)CC2)nc(N)c1Cc1ccccc1O` [Example 19, 2-[2-/4-(4-Nitrobenzyl)-1-piperazinyl/-ethylthio]-4,6-diamino-5-(2-hydroxybenzyl)-pyrimidine] as the compound, how does the pKi (5-HT2A receptor [1]) read?
**A.** 7.32

**Q.** And the pKi (5-HT2C receptor)?
**A.** < 7.00

**Q.** `Nc1nc(SCCN2CCN(Cc3cccc(C(F)(F)F)c3)CC2)nc(N)c1Cc1ccc(F)cc1` [Example 21, 2-[2-/4-(3-Trifluoromethylbenzyl)-1-piperazinyl/ethylthio]4,6-diamino-5-(4-fluorobenzyl)pyrimidine] was tested. Which pKi (5-HT2A receptor [1]) did it give?
**A.** < 7.00

**Q.** And the pKi (5-HT2C receptor)?
**A.** 7.41

**Q.** Which results are given for `COc1ccc(Cc2c(N)nc(SCCN3CCN(Cc4ccc(C)cc4)CC3)nc2N)cc1` [Example 23, 2-[2-/4-(4-Methylbenzyl)-1-piperazinyl/-ethylthio]-4,6-diamino-5-(4-methoxybenzyl)-pyrimidine]?
**A.** pKi (5-HT2A receptor [1]): 7.70; pKi (5-HT2C receptor): < 7.00; pIC50 (5-HT2A receptor [2]): 6.17

**Q.** `COc1ccc(Cc2c(N)nc(SCCN3CCN(Cc4ccccc4C)CC3)nc2N)cc1` [Example 24, 2-[2-/4-(2-Methylbenzyl)-1-piperazinyl/-ethylthio]-4,6-diamino-5-(4-methoxybenzyl)-pyrimidine] was tested. Which pKi (5-HT2A receptor [1]) did it give?
**A.** 7.74

**Q.** And the pKi (5-HT2C receptor)?
**A.** 7.66

**Q.** What about the pIC50 (5-HT2A receptor [2]) of the same compound?
**A.** 6.62

**Q.** `COc1ccc(Cc2c(N)nc(SCCN3CCN(Cc4ccccc4F)CC3)nc2N)cc1` [Example 25, 2-[2-/4-(2-Fluorobenzyl)-1-piperazinyl/-ethylthio]-4,6-diamino-5-(4-methoxybenzyl)-pyrimidine] was tested. Which pKi (5-HT2A receptor [1]) did it give?
**A.** 7.70

**Q.** And the pKi (5-HT2C receptor)?
**A.** < 7.00

**Q.** What about the pIC50 (5-HT2A receptor [2]) of the same compound?
**A.** 6.55

**Q.** `COc1ccc(Cc2c(N)nc(SCCN3CCN(Cc4cccc(C#N)c4)CC3)nc2N)cc1` [Example 26, 2-[2-/4-(3-Cyanobenzyl)-1-piperazinyl/-ethylthio]-4,6-diamino-5-(4-methoxybenzyl)-pyrimidine] was tested. Which pKi (5-HT2A receptor [1]) did it give?
**A.** 7.32

**Q.** And the pKi (5-HT2C receptor)?
**A.** 7.35

**Q.** What about the pIC50 (5-HT2A receptor [2]) of the same compound?
**A.** 6.59

**Q.** How did the pIC50 (5-HT2A receptor [2]) turn out when `COc1ccc(Cc2c(N)nc(SCCN3CCN(Cc4ccccc4C#N)CC3)nc2N)cc1` [Example 27, 2-[2-/4-(2-Cyanobenzyl)-1-piperazinyl/-ethylthio]-4,6-diamino-5-(4-methoxybenzyl)-pyrimidine] was run?
**A.** 6.05

**Q.** With `COc1ccc(Cc2c(N)nc(SCCN3CCN(Cc4cccc(OC)c4)CC3)nc2N)cc1` [Example 28, 2-[2-/4-(3-Methoxybenzyl)-1-piperazinyl/-ethylthio]-4,6-diamino-5-(4-methoxybenzyl)-pyrimidine] as the compound, how does the pKi (5-HT2A receptor [1]) read?
**A.** < 7.00

**Q.** And the pKi (5-HT2C receptor)?
**A.** 7.30

**Q.** How did the pKi (5-HT2A receptor [1]) turn out when `COc1ccccc1Cc1c(N)nc(SCCN2CCN(Cc3ccc([N+](=O)[O-])cc3)CC2)nc1N` [Example 34, 2-[2-/4-(4-Nitrobenzyl)-1-piperazinyl/-ethylthio]-4,6-diamino-5-(2-methoxy-benzyl)pyrimidine] was run?
**A.** 7.15

**Q.** And the pKi (5-HT2C receptor)?
**A.** < 7.00

**Q.** What does the source list for `COc1ccc(Cc2c(N)nc(SCCN3CCN(Cc4cccc(C(F)(F)F)c4)CC3)nc2N)cc1` [Example 35, 2-[2-/4-(3-Trifluoromethylbenzyl)-1-piperazinyl/-ethyl-thio]-4,6-diamino-5-(4-methoxybenzyl)pyrimidine]?
**A.** pKi (5-HT2A receptor [1]): < 7.00; pKi (5-HT2C receptor): 7.16

**Q.** Which results are given for `COc1ccccc1Cc1c(N)nc(SCCN2CCN(Cc3cccc(C(F)(F)F)c3)CC2)nc1N` [Example 36, 2-[2-/4-(3-Trifluoromethylbenzyl)-1-piperazinyl/ethylthio]-4,6-diamino-5-(2-methoxybenzyl)pyrimidine]?
**A.** pKi (5-HT2A receptor [1]): < 7.00; pKi (5-HT2C receptor): 7.74

**Q.** What does the source list for `Cc1ccccc1CN1CCN(CCSc2nc(N)c(Cc3ccccc3Cl)c(N)n2)CC1` [Example 39, 2-[2-/4-(2-Methylbenzyl)-1-piperazinyl/-ethylthio]-4,6-diamino-5-(2-chloro-benzyl)pyrimidine]?
**A.** pKi (5-HT2C receptor): 7.57; pIC50 (5-HT2A receptor [2]): 6.52

**Q.** How did the pKi (5-HT2A receptor [1]) turn out when `Cc1ccc(CN2CCN(CCSc3nc(N)c(Cc4ccccc4Cl)c(N)n3)CC2)cc1` [Example 40, 2-[2-/4-(4-Methylbenzyl)-1-piperazinyl/-ethylthio]-4,6-diamino-5-(2-chlorobenzyl)-pyrimidine] was run?
**A.** 7.68

**Q.** What about the pKi (5-HT2C receptor) of the same compound?
**A.** < 7.00

**Q.** With `Nc1nc(SCCN2CCN(Cc3ccccc3Cl)CC2)nc(N)c1Cc1ccc(Cl)cc1` [Example 47, 2-[2-/4-(2-Chlorobenzyl)-1-piperazinyl/ethylthio]-4,6-diamino-5-(4-chlorobenzyl)-pyrimidine] as the compound, how does the pKi (5-HT2A receptor [1]) read?
**A.** < 7.00

**Q.** What about the pKi (5-HT2C receptor) of the same compound?
**A.** 7.48

**Q.** How did the pIC50 (5-HT2A receptor [2]) turn out when `CN(C)c1ccc(Cc2c(N)nc(SCCN3CCN(Cc4ccccc4C#N)CC3)nc2N)cc1` [Example 54, 2-[2-/4-(2-Cyanobenzyl)-1-piperazinyl/-ethylthio]-4,6-diamino-5-(4-dimethylamino-benzyl)pyrimidine] was run?
**A.** 6.24

**Q.** With `COc1ccc(CN2CCN(CCSc3nc(N)c(Cc4cc(OC)c(OC)c(OC)c4)c(N)n3)CC2)cc1` [Example 66, 2-[2-/4-(4-Methoxybenzyl)-1-piperazinyl/-ethylthio]-4,6-diamino-5-(3,4,5-trimethoxy-benzyl)pyrimidine] as the compound, how does the pKi (5-HT2A receptor [1]) read?
**A.** 7.21

**Q.** What about the pKi (5-HT2C receptor) of the same compound?
**A.** < 7.00

**Q.** How did the pKi (5-HT2A receptor [1]) turn out when `CN(C)c1ccc(Cc2c(N)nc(SCCN3CCN(Cc4ccccc4Cl)CC3)nc2N)cc1` [Example 101, 2-[2-/4-(2-Chlorobenzyl)-1-piperazinyl/-ethylthio]-4,6-diamino-5-(4-dimethylamino-benzyl)pyrimidine] was run?
**A.** 7.80

**Q.** What about the pKi (5-HT2C receptor) of the same compound?
**A.** 7.62
